Here are results for ten compounds from ChEMBL document CHEMBL3352433, “Class II but Not Second Class-Prospects for the Development of Class II PI3K Inhibitors” (ACS Med Chem Lett, 2015).

Test [1] addresses DNA-dependent protein kinase catalytic subunit (Homo sapiens, UniProt P78527). The test can be described thus: Inhibition of human DNA-PK by non-radiometric ADP-Glo assay. On the technique in general: ADP-Glo turns the ADP formed in a reaction into a luminescent signal.
The target of test [2] is Phosphatidylinositol 4-phosphate 3-kinase C2 domain-containing subunit alpha (Homo sapiens, UniProt O00443). The test can be described thus: Inhibition of human PI3KC2alpha by non-radiometric ADP-Glo assay.
Test [3] has as its target Phosphatidylinositol 4-phosphate 3-kinase C2 domain-containing subunit beta (Homo sapiens, UniProt O00750). The test can be described thus: Inhibition of human PI3KC2beta by non-radiometric ADP-Glo assay.
Test [4] is described as follows: Inhibition of human class 4 PI3K by non-radiometric ADP-Glo assay.
A short description of test [5]: Inhibition of human class 1 PI3K by non-radiometric ADP-Glo assay.
Test [6] concerns the target Serine/threonine-protein kinase mTOR (Homo sapiens, UniProt P42345). The test can be described thus: Inhibition of human mTOR by non-radiometric ADP-Glo assay.

Sequence of DNA-dependent protein kinase catalytic subunit (P78527 whole entry, the tested form may be a part): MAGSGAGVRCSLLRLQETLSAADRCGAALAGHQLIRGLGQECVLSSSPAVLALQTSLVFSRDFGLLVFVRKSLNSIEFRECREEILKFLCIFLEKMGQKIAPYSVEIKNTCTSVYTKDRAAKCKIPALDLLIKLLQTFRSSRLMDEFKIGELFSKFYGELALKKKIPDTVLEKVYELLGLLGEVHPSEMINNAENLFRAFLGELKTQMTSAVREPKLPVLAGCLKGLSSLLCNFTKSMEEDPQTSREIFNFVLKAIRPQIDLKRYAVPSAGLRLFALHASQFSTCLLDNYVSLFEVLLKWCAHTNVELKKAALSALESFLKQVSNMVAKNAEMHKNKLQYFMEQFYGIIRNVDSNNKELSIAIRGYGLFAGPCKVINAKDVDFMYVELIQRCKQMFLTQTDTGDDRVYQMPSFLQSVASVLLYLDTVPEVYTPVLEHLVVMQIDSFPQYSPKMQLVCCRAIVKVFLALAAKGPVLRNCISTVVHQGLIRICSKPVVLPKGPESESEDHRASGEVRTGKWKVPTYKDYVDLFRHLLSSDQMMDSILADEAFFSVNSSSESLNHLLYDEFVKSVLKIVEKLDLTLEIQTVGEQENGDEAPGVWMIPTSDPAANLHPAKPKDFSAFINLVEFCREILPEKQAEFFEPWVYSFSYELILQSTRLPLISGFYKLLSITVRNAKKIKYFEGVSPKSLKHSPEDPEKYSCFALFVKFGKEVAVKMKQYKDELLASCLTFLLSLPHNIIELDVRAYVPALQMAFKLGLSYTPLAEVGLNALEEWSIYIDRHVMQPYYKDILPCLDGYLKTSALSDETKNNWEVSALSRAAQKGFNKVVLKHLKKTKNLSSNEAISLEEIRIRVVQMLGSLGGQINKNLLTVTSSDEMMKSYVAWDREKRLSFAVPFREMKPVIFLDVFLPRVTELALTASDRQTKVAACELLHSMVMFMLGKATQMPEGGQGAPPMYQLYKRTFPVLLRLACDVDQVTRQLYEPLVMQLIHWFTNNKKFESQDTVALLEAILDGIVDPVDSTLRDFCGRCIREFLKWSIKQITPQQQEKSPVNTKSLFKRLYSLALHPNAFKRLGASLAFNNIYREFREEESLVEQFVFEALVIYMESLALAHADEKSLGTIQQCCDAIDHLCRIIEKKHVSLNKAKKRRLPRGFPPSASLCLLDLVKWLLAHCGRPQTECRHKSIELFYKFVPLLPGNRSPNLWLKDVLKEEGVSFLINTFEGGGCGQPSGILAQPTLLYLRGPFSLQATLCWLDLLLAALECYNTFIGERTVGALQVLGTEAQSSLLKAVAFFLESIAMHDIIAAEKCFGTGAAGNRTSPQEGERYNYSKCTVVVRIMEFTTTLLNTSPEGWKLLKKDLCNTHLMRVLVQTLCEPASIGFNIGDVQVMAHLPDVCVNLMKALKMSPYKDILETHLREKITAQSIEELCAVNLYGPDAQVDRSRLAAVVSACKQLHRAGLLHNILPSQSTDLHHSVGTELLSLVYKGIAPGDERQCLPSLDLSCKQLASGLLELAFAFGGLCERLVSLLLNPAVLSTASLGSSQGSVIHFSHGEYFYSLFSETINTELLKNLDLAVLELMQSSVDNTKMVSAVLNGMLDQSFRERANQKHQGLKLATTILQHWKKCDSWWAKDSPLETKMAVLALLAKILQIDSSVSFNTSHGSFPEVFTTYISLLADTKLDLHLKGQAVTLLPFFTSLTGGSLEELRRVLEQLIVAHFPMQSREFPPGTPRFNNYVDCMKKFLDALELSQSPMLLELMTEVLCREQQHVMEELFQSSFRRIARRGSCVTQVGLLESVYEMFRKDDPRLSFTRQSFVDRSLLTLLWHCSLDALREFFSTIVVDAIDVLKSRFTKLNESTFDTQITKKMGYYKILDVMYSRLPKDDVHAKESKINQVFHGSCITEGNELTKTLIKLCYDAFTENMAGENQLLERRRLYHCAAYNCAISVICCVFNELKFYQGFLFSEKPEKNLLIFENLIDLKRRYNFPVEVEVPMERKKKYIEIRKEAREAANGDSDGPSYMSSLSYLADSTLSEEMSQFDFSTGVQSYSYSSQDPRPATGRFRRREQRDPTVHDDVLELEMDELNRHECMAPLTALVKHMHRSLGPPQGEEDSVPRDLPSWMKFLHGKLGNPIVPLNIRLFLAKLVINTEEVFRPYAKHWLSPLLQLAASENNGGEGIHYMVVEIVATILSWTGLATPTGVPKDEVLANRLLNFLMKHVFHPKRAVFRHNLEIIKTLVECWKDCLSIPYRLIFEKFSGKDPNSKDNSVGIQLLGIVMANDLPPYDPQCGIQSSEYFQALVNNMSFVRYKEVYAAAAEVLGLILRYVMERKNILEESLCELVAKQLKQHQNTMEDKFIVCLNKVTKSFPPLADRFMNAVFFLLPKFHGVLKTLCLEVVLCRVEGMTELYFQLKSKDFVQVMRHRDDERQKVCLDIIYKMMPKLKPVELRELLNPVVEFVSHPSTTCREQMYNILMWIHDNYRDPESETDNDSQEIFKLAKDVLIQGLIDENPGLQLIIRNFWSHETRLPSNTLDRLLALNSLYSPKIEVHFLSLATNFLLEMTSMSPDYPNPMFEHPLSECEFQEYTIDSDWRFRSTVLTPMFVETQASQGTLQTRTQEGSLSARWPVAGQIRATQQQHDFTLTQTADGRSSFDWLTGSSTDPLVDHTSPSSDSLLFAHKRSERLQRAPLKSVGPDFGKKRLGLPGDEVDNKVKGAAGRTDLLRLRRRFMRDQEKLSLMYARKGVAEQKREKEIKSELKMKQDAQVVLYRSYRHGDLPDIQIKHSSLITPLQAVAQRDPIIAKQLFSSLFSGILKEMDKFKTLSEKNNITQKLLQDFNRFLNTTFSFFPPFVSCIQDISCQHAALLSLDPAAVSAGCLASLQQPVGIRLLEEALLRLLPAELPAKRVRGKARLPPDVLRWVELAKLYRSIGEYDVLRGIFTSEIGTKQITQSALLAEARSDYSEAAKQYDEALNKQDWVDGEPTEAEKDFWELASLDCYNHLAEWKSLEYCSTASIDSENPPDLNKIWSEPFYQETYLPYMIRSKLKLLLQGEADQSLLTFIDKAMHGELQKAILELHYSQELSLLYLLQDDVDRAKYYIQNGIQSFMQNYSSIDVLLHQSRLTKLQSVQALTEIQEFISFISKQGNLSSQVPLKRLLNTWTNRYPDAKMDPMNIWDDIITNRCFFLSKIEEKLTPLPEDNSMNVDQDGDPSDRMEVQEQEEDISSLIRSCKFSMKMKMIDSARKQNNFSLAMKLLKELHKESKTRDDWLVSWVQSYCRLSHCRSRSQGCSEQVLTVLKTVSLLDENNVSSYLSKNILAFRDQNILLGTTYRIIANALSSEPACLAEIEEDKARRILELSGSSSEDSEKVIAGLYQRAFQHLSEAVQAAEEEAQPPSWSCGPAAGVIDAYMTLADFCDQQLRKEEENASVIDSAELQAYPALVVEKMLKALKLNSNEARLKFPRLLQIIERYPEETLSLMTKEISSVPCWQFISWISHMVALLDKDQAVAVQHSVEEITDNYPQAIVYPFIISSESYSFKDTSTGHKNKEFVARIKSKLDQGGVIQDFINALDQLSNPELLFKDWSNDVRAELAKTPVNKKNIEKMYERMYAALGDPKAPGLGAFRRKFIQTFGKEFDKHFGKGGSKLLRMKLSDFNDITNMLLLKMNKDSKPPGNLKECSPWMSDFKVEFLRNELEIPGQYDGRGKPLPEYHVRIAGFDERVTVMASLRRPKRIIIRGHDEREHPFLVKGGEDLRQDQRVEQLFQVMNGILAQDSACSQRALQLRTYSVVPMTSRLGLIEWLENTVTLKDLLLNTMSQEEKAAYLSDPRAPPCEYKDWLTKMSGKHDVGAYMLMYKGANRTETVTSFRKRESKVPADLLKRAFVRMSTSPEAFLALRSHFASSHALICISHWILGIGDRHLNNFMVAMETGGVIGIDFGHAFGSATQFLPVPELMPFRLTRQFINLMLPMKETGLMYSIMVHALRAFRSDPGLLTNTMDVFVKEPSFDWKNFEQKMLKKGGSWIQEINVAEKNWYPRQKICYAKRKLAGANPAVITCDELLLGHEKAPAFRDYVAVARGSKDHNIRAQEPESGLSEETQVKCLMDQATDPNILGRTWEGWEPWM

As usually defined, the IC50 is the concentration that inhibits the measured activity by half. `CC(=O)Nc1nc(C)c(-c2ccc(Cl)c(S(=O)(=O)NCCO)c2)s1`: the IC50 came out at 64 nM in test [1], 16 µM in test [2] and 140 nM in test [3].

As to `COc1ccc2c(c1OC)N=C(NC(=O)c1cccnc1)N1CCN=C21`, the results for the IC50 in test [1], in test [2] and in test [3] were 13 nM, 0.047 µM and 64 nM, respectively.

`O=C1NC(=S)S/C1=C/c1ccc2c(c1)N(Cc1ccc(F)c(Cl)c1)C(=O)CO2`: the IC50 worked out at 1500 nM in test [1], 0.14 µM in test [2] and 370 nM in test [3].

For `CC(=O)Nc1ccc2nc(-c3cccc(NS(=O)(=O)c4cccc5ccccc45)c3)nc(N3CCOCC3)c2c1`, the results for the IC50 in test [4], in test [5] and in test [3] were more than 100 µM, more than 10 µM and 530 nM, respectively.

Turning to `CC(=O)Nc1ccc2nc(-c3cccc(NS(=O)(=O)c4ccccc4)c3)nc(N3CCOCC3)c2c1`, the results for the IC50 in test [4], in test [5] and in test [3] were more than 100 µM, more than 10 µM and 630 nM, respectively.

In test [3], `CC[C@H](Nc1ncnc2[nH]cnc12)c1nc2cccc(F)c2c(=O)n1-c1ccccc1` [IDELALISIB] gave an IC50 of more than 1000 nM.

Consider `O=c1cc(N2CCOCC2)oc2c(-c3ccccc3)cccc12` [LY-294002], for which the IC50 was determined as 3900 nM in test [6], 27 µM in test [2] and 10400 nM in test [3].

For `Oc1cccc(-c2nc(N3CCOCC3)c3oc4ncccc4c3n2)c1` [PI-103], in test [2], inhibition was half-maximal at 1 µM (IC50). In other words, the single-digit micromolar range.

In test [2], `CS(=O)(=O)N1CCN(Cc2cc3nc(-c4cccc5[nH]ncc45)nc(N4CCOCC4)c3s2)CC1` [PICTILISIB] had an IC50 of more than 100 µM.

As for `FC(F)c1nc2ccccc2n1-c1nc(N2CCOCC2)nc(N2CCOCC2)n1` [ZSTK-474], the IC50 in test [6] is 370 nM; in test [2], more than 100 µM; in test [3], 180 nM.
